Source: publication PMC9898036, “VIP152 is a selective CDK9 inhibitor with pre-clinical in vitro and in vivo efficacy in chronic lymphocytic leukemia” (Leukemia, 2022)

How the values were obtained:
Experiment in all cases: DiscoverX KINOMEscan kinase profiling (468 assays)
Type in all cases: binding
human kinome [1] = biological target: human kinome (Homo sapiens, UniProt Q15835); conditions: GRK1; 100 nM; read-out: Percent Control
Outline: (§1)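 DNA-tagged kinases competed for immobilized biotinylated ligands on streptavidin magnetic beads, with bound kinase quantified by qPCR. VIP152 in DMSO was tested against a DMSO control.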

human kinome [2] = biological target: human kinome (Homo sapiens, UniProt P42680); conditions: kinase TEC (Entrez TEC); compound concentration 1000 nM; read-out: Percent Control
Outline: as §1

human kinome [3] = biological target: human kinome (Homo sapiens, UniProt Q96L34); conditions: MARK4; 100 nM; read-out: Percent Control
Outline: as §1

human kinome [4] = biological target: human kinome (Homo sapiens, UniProt Q8N4C8); conditions: MINK (Entrez MINK1); 100 nM; read-out: Percent Control
Outline: as §1

human kinome [5] = biological target: human kinome (Homo sapiens, UniProt Q9UEW8); conditions: kinase STK39 (Entrez STK39); compound concentration 1000 nM; read-out: Percent Control
Outline: as §1

human kinome [6] = biological target: human kinome (Homo sapiens, UniProt Q04759); conditions: read-out: Percent Control
Chain of human kinome (Homo sapiens, UniProt Q04759) (Q04759 whole entry): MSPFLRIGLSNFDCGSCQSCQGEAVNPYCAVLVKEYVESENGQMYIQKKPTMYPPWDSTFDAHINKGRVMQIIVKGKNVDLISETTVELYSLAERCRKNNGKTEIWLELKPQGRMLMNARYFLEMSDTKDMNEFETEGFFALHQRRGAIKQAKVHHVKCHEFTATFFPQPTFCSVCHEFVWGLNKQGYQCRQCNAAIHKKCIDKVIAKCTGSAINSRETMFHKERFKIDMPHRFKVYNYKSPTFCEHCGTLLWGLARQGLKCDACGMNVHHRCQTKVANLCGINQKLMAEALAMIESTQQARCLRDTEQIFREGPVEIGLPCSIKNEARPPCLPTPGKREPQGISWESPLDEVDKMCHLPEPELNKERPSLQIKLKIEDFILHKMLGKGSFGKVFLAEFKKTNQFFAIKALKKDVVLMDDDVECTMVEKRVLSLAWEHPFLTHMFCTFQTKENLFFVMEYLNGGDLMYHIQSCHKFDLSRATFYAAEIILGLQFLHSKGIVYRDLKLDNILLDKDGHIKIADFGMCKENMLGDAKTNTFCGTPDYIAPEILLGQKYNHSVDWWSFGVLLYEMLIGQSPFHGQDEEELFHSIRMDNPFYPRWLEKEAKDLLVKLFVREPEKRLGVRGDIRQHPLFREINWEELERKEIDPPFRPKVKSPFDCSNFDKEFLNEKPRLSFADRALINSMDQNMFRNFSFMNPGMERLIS
Outline: as §1

human kinome [7] = biological target: human kinome (Homo sapiens, UniProt Q9UKE5); conditions: kinase TNIK (Entrez TNIK); compound concentration 1000 nM; read-out: Percent Control
Outline: as §1

human kinome [8] = biological target: human kinome (Homo sapiens, UniProt Q9H2K8); conditions: kinase TAOK3 (Entrez TAOK3); compound concentration 1000 nM; read-out: Percent Control
Outline: as §1

human kinome [9] = biological target: human kinome (Homo sapiens, UniProt Q9UKI8); conditions: kinase TLK1 (Entrez TLK1); compound concentration 1000 nM; read-out: Percent Control
Outline: as §1

human kinome [10] = biological target: human kinome (Homo sapiens, UniProt Q9BXA7); conditions: kinase TSSK1B (Entrez TSSK1B); compound concentration 1000 nM; read-out: Percent Control
Chain of human kinome (Homo sapiens, UniProt Q9BXA7) (Q9BXA7 whole entry): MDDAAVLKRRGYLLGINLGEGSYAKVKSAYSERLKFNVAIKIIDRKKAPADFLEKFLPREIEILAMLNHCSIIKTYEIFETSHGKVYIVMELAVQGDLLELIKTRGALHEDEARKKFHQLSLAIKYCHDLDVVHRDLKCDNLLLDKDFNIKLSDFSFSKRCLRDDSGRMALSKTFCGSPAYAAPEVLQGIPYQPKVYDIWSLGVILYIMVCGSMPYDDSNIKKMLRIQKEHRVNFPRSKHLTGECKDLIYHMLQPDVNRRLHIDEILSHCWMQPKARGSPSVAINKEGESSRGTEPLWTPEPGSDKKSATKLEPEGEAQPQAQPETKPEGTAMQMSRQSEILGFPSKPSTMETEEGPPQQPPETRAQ
Outline: as §1

human kinome [11] = biological target: human kinome (Homo sapiens, UniProt P0C264); conditions: kinase SgK110 (Entrez SgK110); compound concentration 1000 nM; read-out: Percent Control
Outline: as §1

human kinome [12] = biological target: human kinome (Homo sapiens, UniProt Q15759); conditions: read-out: Percent Control
Chain of human kinome (Homo sapiens, UniProt Q15759) (Q15759 whole entry): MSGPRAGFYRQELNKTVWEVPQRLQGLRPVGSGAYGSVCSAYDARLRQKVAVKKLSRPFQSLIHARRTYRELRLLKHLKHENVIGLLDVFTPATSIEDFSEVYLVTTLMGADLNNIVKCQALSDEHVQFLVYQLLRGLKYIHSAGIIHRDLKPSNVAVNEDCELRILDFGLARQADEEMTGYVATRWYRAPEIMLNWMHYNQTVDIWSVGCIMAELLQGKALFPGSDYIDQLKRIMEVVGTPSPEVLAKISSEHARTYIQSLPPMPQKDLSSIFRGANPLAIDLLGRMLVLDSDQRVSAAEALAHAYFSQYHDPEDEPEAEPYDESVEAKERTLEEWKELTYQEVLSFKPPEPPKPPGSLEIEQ
Outline: as §1

human kinome [13] = biological target: human kinome (Homo sapiens, UniProt O94806); conditions: read-out: Percent Control
Chain of human kinome (Homo sapiens, UniProt O94806) (O94806 whole entry): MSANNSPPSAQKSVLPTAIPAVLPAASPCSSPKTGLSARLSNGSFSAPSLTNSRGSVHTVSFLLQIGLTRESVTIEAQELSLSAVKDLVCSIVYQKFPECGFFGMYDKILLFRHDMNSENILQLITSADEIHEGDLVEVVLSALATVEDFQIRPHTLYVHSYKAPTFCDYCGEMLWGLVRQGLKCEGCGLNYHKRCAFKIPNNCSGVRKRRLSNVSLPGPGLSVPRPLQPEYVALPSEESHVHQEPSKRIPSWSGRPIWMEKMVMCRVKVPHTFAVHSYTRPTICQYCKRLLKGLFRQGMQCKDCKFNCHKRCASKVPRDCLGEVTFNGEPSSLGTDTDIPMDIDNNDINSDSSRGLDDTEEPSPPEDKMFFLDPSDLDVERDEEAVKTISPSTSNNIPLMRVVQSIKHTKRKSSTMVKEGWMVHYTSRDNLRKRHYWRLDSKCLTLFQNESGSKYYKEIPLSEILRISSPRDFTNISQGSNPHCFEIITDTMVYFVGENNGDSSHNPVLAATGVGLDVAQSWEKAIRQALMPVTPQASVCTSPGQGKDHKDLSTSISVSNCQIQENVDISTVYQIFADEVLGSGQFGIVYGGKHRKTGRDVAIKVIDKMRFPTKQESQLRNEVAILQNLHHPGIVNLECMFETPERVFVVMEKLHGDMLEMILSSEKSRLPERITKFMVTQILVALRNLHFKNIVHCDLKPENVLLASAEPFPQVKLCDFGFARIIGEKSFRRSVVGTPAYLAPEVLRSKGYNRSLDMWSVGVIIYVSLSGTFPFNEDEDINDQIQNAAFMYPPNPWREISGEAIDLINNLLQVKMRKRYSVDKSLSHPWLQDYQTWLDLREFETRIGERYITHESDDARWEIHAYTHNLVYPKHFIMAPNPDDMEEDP
Outline: as §1

human kinome [14] = biological target: human kinome (Homo sapiens, UniProt P42345); conditions: MTOR; 100 nM; read-out: Percent Control
Outline: as §1

human kinome [15] = biological target: human kinome (Homo sapiens, UniProt Q9H4A3); conditions: kinase WNK1 (Entrez WNK1); compound concentration 1000 nM; read-out: Percent Control
Outline: as §1

human kinome [16] = biological target: human kinome (Homo sapiens, UniProt O60674); conditions: JAK2(JH1domain-catalytic); 100 nM; read-out: Percent Control
Outline: as §1

human kinome [17] = biological target: human kinome (Homo sapiens, UniProt P46734); conditions: MEK3 (Entrez MAP2K3); 100 nM; read-out: Percent Control
Chain of human kinome (Homo sapiens, UniProt P46734) (P46734 whole entry): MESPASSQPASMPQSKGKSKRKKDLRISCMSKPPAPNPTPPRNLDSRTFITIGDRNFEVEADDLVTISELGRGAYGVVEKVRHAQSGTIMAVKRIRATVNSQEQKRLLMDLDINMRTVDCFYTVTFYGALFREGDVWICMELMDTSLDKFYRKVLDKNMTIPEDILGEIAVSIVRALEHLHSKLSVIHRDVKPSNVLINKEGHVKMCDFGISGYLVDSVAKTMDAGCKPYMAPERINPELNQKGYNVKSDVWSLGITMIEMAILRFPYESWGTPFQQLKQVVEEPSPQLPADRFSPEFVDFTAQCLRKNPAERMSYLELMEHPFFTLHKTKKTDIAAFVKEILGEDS
Outline: as §1

human kinome [18] = biological target: human kinome (Homo sapiens, UniProt Q07002); conditions: read-out: Percent Control
Chain of human kinome (Homo sapiens, UniProt Q07002) (Q07002 whole entry): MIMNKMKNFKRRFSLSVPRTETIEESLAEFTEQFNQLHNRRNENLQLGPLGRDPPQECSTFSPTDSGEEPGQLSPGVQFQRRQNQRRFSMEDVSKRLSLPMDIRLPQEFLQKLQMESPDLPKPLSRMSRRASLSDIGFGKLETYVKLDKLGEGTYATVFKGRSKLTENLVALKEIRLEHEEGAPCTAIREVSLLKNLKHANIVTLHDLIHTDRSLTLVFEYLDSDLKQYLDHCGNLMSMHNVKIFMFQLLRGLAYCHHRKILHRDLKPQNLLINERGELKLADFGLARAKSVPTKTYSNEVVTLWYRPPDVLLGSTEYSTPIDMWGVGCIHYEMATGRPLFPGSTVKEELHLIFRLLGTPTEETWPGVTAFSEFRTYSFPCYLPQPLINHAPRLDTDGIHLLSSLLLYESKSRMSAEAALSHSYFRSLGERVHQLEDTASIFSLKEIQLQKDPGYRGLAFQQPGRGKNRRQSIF
Outline: as §1

human kinome [19] = biological target: human kinome (Homo sapiens, UniProt Q9Y2U5); conditions: MAP3K2; 100 nM; read-out: Percent Control
Outline: as §1

human kinome [20] = biological target: human kinome (Homo sapiens, UniProt P57078); conditions: kinase RIPK4 (Entrez RIPK4); compound concentration 1000 nM; read-out: Percent Control
Outline: as §1

human kinome [21] = biological target: human kinome (Homo sapiens, UniProt P51451); conditions: BLK; 100 nM; read-out: Percent Control
Outline: as §1

human kinome [22] = biological target: human kinome (Homo sapiens, UniProt P45983); conditions: JNK1 (Entrez MAPK8); 100 nM; read-out: Percent Control
Outline: as §1

human kinome [23] = biological target: human kinome (Homo sapiens, UniProt P21127); conditions: CDC2L1 (Entrez CDK11B); 100 nM; read-out: Percent Control
Outline: as §1

human kinome [24] = biological target: human kinome (Homo sapiens, UniProt P42336, H1047Y); conditions: read-out: Percent Control
Chain of human kinome (Homo sapiens, UniProt P42336, H1047Y) (P42336 whole entry H1047Y): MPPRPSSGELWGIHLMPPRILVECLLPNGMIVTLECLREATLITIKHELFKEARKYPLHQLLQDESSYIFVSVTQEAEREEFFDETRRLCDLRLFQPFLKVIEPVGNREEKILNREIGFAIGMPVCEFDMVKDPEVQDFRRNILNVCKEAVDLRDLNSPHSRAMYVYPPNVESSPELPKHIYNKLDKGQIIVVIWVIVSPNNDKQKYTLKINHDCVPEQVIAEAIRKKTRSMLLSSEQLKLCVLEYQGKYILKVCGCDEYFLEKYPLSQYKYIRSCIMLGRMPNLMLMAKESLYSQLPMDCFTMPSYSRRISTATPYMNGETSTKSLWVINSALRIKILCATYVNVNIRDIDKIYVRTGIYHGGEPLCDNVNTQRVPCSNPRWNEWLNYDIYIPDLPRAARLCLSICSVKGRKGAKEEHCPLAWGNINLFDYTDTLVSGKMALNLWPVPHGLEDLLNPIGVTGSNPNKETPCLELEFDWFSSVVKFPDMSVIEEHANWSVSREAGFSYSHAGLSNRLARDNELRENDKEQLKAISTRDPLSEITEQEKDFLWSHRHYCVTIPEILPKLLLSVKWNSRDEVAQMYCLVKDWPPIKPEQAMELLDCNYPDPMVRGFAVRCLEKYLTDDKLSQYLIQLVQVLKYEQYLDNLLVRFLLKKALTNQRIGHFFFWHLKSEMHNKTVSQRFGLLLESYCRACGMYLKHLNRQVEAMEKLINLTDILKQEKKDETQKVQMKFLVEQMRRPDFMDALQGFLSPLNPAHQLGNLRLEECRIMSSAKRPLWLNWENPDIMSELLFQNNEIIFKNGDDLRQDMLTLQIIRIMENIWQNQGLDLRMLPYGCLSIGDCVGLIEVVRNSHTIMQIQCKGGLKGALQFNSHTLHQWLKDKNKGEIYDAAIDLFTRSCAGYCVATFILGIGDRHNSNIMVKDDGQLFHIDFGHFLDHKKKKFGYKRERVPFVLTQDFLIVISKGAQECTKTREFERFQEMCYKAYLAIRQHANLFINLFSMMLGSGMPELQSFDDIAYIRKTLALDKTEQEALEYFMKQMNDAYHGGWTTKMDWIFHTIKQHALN
Outline: as §1

human kinome [25] = biological target: human kinome (Homo sapiens, UniProt P42336, Q546K); conditions: read-out: Percent Control
Chain of human kinome (Homo sapiens, UniProt P42336, Q546K) (P42336 whole entry Q546K): as the sequence (P42336 whole entry H1047Y) above, with Q546K, Y1047H counted along it
Outline: as §1

human kinome [26] = biological target: human kinome (Homo sapiens, UniProt Q9UM73); conditions: ALK; 100 nM; read-out: Percent Control
Outline: as §1

human kinome [27] = biological target: human kinome (Homo sapiens, UniProt Q96Q40); conditions: read-out: Percent Control
Chain of human kinome (Homo sapiens, UniProt Q96Q40) (Q96Q40 whole entry): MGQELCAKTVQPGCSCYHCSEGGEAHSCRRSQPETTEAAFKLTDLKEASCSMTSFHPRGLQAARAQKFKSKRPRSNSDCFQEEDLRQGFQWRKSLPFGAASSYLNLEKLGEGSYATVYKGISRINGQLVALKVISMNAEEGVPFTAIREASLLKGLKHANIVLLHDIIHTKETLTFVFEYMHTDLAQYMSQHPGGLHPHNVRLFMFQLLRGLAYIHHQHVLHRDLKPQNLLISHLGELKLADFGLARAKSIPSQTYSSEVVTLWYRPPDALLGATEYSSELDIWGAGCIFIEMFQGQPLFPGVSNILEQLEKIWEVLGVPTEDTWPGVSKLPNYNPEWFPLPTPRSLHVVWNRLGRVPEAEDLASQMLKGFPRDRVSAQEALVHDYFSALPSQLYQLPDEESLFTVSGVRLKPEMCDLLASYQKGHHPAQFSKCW
Outline: as §1

human kinome [28] = biological target: human kinome (Homo sapiens, UniProt P10721, T670I/V559D); conditions: KIT(V559D,T670I); 100 nM; read-out: Percent Control
Outline: as §1

human kinome [29] = biological target: human kinome (Homo sapiens, UniProt P42679); conditions: CTK (Entrez MATK); 100 nM; read-out: Percent Control
Outline: as §1

COc1cc(F)ccc1-c1cc(Nc2cc(CS(C)(=N)=O)ccn2)ncc1F (stereo not drawn) [VIP152]
remaining binding at 0.1 µM (human kinome [1]): 95%
remaining binding at 1 µM (human kinome [2]): 100%
remaining binding at 0.1 µM (human kinome [3]): 81%
remaining binding at 0.1 µM (human kinome [4]): 100%
remaining binding at 1 µM (human kinome [5]): 92%
remaining binding at 0.1 µM (human kinome [6]; PRKCQ, 100 nM): 100%
remaining binding at 1 µM (human kinome [6]; kinase PRKCQ (Entrez PRKCQ), compound concentration 1000 nM): 62%
remaining binding at 1 µM (human kinome [7]): 32%
remaining binding at 1 µM (human kinome [8]): 57%
remaining binding at 1 µM (human kinome [9]): 89%
remaining binding at 1 µM (human kinome [10]): 92%
remaining binding at 1 µM (human kinome [11]): 100%
remaining binding at 1 µM (human kinome [12]; kinase p38-beta (Entrez MAPK11), compound concentration 1000 nM): 100%
remaining binding at 0.1 µM (human kinome [12]; p38-beta (Entrez MAPK11), 100 nM): 100%
remaining binding at 0.1 µM (human kinome [13]; PRKD3, 100 nM): 91%
remaining binding at 1 µM (human kinome [13]; kinase PRKD3 (Entrez PRKD3), compound concentration 1000 nM): 100%
remaining binding at 0.1 µM (human kinome [14]): 59%
remaining binding at 1 µM (human kinome [15]): 90%
remaining binding at 0.1 µM (human kinome [16]): 100%
remaining binding at 0.1 µM (human kinome [17]): 100%
remaining binding at 0.1 µM (human kinome [18]; PCTK3 (Entrez CDK18), 100 nM): 100%
remaining binding at 1 µM (human kinome [18]; kinase PCTK3 (Entrez CDK18), compound concentration 1000 nM): 84%
remaining binding at 0.1 µM (human kinome [19]): 100%
remaining binding at 1 µM (human kinome [20]): 49%
remaining binding at 0.1 µM (human kinome [21]): 100%
remaining binding at 0.1 µM (human kinome [22]): 98%
remaining binding at 0.1 µM (human kinome [23]): 100%
remaining binding at 0.1 µM (human kinome [24]; PIK3CA(H1047Y), 100 nM): 74%
remaining binding at 1 µM (human kinome [24]; kinase PIK3CA(H1047Y) (Entrez PIK3CA), compound concentration 1000 nM): 85%
remaining binding at 0.1 µM (human kinome [25]; PIK3CA(Q546K), 100 nM): 100%
remaining binding at 1 µM (human kinome [25]; kinase PIK3CA(Q546K) (Entrez PIK3CA), compound concentration 1000 nM): 96%
remaining binding at 0.1 µM (human kinome [26]): 100%
remaining binding at 0.1 µM (human kinome [27]; PFTAIRE2 (Entrez CDK15), 100 nM): 100%
remaining binding at 1 µM (human kinome [27]; kinase PFTAIRE2 (Entrez CDK15), compound concentration 1000 nM): 70%
remaining binding at 0.1 µM (human kinome [28]): 100%
remaining binding at 0.1 µM (human kinome [29]): 95%
